Experimental findings from patent publication US7541366B2, “Pyrrolo[3,2-c]pyridine derivatives and processes for the preparation thereof” (YUHAN Corporation, priority 2004, dated 2009) are described below.

As usually defined, the IC50 is the concentration needed to halve the response being measured.

Counter-ions that a name gives are not always drawn.

T1 sequence (P19156 whole entry): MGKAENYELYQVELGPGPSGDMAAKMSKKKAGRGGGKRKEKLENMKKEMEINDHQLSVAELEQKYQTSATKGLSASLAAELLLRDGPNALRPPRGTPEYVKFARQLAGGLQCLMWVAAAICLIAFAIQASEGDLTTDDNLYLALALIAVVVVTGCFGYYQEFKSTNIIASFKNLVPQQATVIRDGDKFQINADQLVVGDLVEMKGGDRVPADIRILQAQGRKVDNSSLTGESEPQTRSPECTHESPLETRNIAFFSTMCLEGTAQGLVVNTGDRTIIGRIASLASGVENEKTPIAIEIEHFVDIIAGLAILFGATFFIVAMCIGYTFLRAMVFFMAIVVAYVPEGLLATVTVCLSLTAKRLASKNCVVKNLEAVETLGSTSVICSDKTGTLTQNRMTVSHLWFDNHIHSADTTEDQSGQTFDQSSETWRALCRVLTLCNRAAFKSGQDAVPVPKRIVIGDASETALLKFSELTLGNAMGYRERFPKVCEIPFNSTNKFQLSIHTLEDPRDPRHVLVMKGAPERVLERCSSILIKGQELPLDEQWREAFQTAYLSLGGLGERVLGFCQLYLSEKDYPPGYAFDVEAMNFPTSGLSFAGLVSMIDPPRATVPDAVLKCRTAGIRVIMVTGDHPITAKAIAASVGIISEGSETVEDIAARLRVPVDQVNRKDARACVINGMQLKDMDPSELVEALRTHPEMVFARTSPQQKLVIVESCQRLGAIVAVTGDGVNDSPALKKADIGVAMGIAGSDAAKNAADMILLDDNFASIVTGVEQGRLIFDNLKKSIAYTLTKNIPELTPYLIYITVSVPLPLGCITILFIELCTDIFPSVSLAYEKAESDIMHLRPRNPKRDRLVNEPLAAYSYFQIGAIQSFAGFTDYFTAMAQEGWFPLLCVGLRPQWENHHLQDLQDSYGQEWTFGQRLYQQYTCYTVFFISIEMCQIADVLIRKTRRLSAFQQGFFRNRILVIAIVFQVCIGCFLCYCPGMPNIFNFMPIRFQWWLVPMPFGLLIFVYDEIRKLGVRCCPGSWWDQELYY
T1 sequence (P18434 whole entry partner): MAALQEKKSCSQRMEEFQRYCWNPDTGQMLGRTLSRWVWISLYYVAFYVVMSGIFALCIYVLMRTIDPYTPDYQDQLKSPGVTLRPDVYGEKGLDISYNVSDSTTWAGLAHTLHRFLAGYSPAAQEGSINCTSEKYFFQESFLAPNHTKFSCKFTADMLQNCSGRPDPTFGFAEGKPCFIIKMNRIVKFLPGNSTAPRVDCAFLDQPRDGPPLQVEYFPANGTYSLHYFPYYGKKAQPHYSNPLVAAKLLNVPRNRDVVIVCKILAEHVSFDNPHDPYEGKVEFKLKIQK

This experiment addresses T1, proton pump (H+/K+-ATPase) (Sus scrofa, UniProt P19156).
T1 construct: used as an enzyme source of the in vitro enzyme reaction assay of proton pump; from tissue; host or cells: hog gastric fundic mucosa; membrane vesicles, lyophilized
The experiment in a line: Inhibitory effects on proton pump (H+/K+-ATPase) activity. The note with it: hog gastric vesicles, K+ stimulated H+/K+-ATPase activity, Pi at 620 nm, 30 minutes at 37° C. Type of experiment: biochemical. As for the experimental part:
1-1. Preparation of gastric proton pump vesicles
The hog fundic regions containing parietal and peptic cells were scraped with slide-glass. The collected cells were suspended in 10 ml of 0.25M sucrose buffer and homogenized using a tight-fitting Teflon-glass homogenizer. The homogenate was centrifuged for 35 min at 8,000 rpm and the pellet was discarded. The supernatant was further centrifuged for 75 min at 25,000 rpm. The resulting pellets were re-suspended in the sucrose buffer (10 ml), and then the suspension was laid onto discontinuous density gradients consisting of 0.25M sucrose buffer and isolation medium containing 9% Ficoll (w/w). After being centrifuged for 3 hours and 15 minutes at 100,000×g, the material at the interface of sucrose buffer and Ficoll solution was collected and then centrifuged for 40 minutes at 100,000×g. The resulting pellets were re-suspended in 1 ml of 5 mM Hepes/Tris buffer (pH 6.1). This material was lyophilized and stored at −70° C. and used as an enzyme source of the in vitro enzyme reaction assay of proton pump.
1-2. Measurement of inhibitory effects on proton pump (H^+/K^+-ATPase) activity
The inhibitory effects of the compounds of the present invention against proton pump activity were evaluated in 96-well plate. In this assay, the K^+specific H^+/K^+-ATPase activity was calculated based on the difference between the activity of H^+/K^30 -ATPase activity with K^30 and without K^30 ion. In 96-well plate, 1% dimethylsulfoxide (DMSO) in buffer was added to negative and positive control groups and the diluted compounds of the present invention in buffer were added to test group. All assays were performed in 100μl reaction volume at room temperature, and the hog gastric vesicle was kept in ice before use. At the beginning of the reaction, 10μl of reaction buffer containing 1% DMSO was added to the negative and positive control groups and to reaction buffer each concentration of compounds in the test group. Then lyophilized vesicle in 5mM Pipes/Tris buffer (pH 6.1) was pre-incubated in the presence of various concentrations of test compounds. After a 5 minute incubation, negative and positive buffers were respectively added to the previous reaction mixture. As the substrate, ATP was added to the reaction buffer, and incubated for 30 minutes at 37° C. Enzymatic activity was stopped by the addition of colorimetric reagent (2X malachite green, 1X ammonium molybdate, X polyvinyl alcohol, 2X H2O) and the amount of mono phosphate (Pi) in the reaction was measured at 620nm using the micro plate reader (Genios Pro, TECAN). The difference between the Pi production with K^+and without K^+is taken as K^+stimulated H^+/K^+-ATPase activity. The IC50s of test compounds were calculated from each % inhibition value of compounds using the method of Litchfield-Wilcoxon (J. Pharmacol. Exp. Ther. (1949) 96, 99).
In turn, `Cc1c(C)n(Cc2ccc3c(c2)OCCO3)c2c(N3CCc4ccccc4C3)cncc12` [Example 30, 2-[1-(2,3-dihydrobenzo[1,4]dioxin-6-ylmethyl)-2,3-dimethyl-1H-pyrrolo[3,2-c]pyridin-7-yl]-1,2,3,4-tetrahydroisoquinoline hydrochloride] gave a 50% inhibitory concentration (IC50) of 170 nM.

The compound `CCn1c(C)c(C)c2cncc(OCc3ccc(F)cc3)c21` [Example 3, 1-ethyl-7-(4-fluorobenzyloxy)-2,3-dimethyl-1H-pyrrolo[3,2-c]pyridine hydrochloride] registered a half-inhibitory concentration (IC50) of 40 nM.

In turn, `Cc1ccc(Cn2c(C)c(C)c3cncc(OCc4ccc(F)cc4)c32)cc1` [Example 8, 7-(4-fluorobenzyloxy)-2,3-dimethyl-1-(4-methylbenzyl)-1H -pyrrolo[3,2-c]pyridine hydrochloride] yielded a half-inhibitory concentration (IC50) of 60 nM.

In the case of `Cc1c(C)n(CC2OCCO2)c2c(N3CCc4ccccc4C3)cncc12` [Example 34, 1-(1,3-dioxolan-2-ylmethyl)-7-(1,2,3,4-tetrahydroisoquinolin-2-yl)-2,3-dimethyl-1H -pyrrolo[3,2-c]pyridine hydrochloride], inhibition was half-maximal at 190 nM (IC50). Against the preceding compound, the IC50 is about 3.2-fold higher.

For the compound `Cc1c(C)n(Cc2ccccc2F)c2c(OCc3ccc(F)cc3)cncc12` [Example 15, 1-(2-fluorobenzyl)-7-(4-fluorobenzyloxy)-2,3-dimethyl-1H -pyrrolo[3,2-c]pyridine hydrochloride], the IC50 came out at 190 nM.

As for `Cc1c(C)n(Cc2ccccc2)c2c(N3CCc4ccccc4C3)cncc12` [Example 35, 1-benzyl-7-(1,2,3,4-tetrahydroisoquinolin-2-yl)-2,3-dimethyl-1H -pyrrolo[3,2-c]pyridine hydrochloride], the IC50 is 60 nM.

As for `Cc1c(C)n(CC2CC2)c2c(OCc3ccc(F)cc3)cncc12` [Example 4, 1-cyclopropylmethyl-7-(4-fluorobenzyloxy)-2,3-dimethyl-1H -pyrrolo[3,2-c]pyridine hydrochloride], inhibition was half-maximal at 10 nM (IC50).

For `Cc1ccc(C)c(Cn2c(C)c(C)c3cncc(OCc4ccc(F)cc4)c32)c1` [Example 13, 1-(2,5-dimethylbenzyl)-7-(4-fluorobenzyloxy)-2,3-dimethyl-1H -pyrrolo[3,2-c]pyridine hydrochloride], the IC50 was determined as 1020 nM. Compared with the last compound, the IC50 is about 100-fold higher.

For `Cc1c(C)n(CC(C)C)c2c(OCc3ccc(F)cc3)cncc12` [Example 11, 7-(4-fluorobenzyloxy)-1-isobutyl-2,3-dimethyl-1H-pyrrolo[3,2-c]pyridine hydrochloride], inhibition was half-maximal at 10 nM (IC50).

`Cc1c(C)n(Cc2ccc3ccccc3c2)c2c(N3CCc4ccccc4C3)cncc12` [Example 32, 1-(2-naphthylmethyl)-7-(1,2,3,4-tetrahydroisoquinolin-2-yl)-2,3-dimethyl-1H -pyrrolo[3,2-c]pyridine hydrochloride] registered an IC50 of 290 nM.

As to `Cc1c(C)n(CC2CCC2)c2c(N3CCc4ccccc4C3)cncc12` [Example 37, 1-cyclobutylmethyl-7-(1,2,3,4-tetrahydroisoquinolin-2-yl)-2,3-dimethyl-1H -pyrrolo[3,2-c]pyridine hydrochloride], the IC50 is 750 nM. Compared with the last compound, the IC50 is about 2.6-fold higher.

The compound `COC(=O)c1ccc(Cn2c(C)c(C)c3cncc(N4CCc5ccccc5C4)c32)cc1` [Example 29, 1-(4-methoxycarbonylbenzyl)-7-(1,2,3,4-tetrahydroisoquinolin-2-yl)-2,3-dimethyl-1H-pyrrolo[3,2-c]pyridine hydrochloride] registered an IC50 of 320 nM.

In turn, `Cc1c(C)n(CC(C)C)c2c(N3CCc4ccccc4C3)cncc12` [Example 36, 1-isobutyl-7-(1,2,3,4-tetrahydroisoquinolin-2-yl)-2,3-dimethyl-1H -pyrrolo[3,2-c]pyridine hydrochloride] came in with an IC50 of 310 nM.

Regarding `COc1cccc(Cn2c(C)c(C)c3cncc(OCc4ccc(F)cc4)c32)c1` [Example 7, 7-(4-fluorobenzyloxy)-1-(3-methoxybenzyl)-2,3-dimethyl-1H -pyrrolo[3,2-c]pyridine hydrochloride], the IC50 was determined as 60 nM.

Compound `Cc1c(C)n(Cc2cccc(F)c2)c2c(OCc3ccc(F)cc3)cncc12` [Example 6, 1-(3-fluorobenzyl)-7-(4-fluorobenzyloxy)-2,3-dimethyl-1H -pyrrolo[3,2-c]pyridine hydrochloride] yielded an IC50 of 30 nM.

`C=CCn1c(C)c(C)c2cncc(OCc3ccc(F)cc3)c21` [Example 5, 1-allyl-7-(4-fluorobenzyloxy)-2,3-dimethyl-1H-pyrrolo[3,2-c]pyridine hydrochloride] showed an IC50 of 280 nM. Compared with the last compound, the IC50 is about 9.3-fold higher.

For `Cc1c(C)n(Cc2ccccc2Cl)c2c(OCc3ccc(F)cc3)cncc12` [Example 14, 1-(2-chlorobenzyl)-7-(4-fluorobenzyloxy)-2,3-dimethyl-1H -pyrrolo[3,2-c]pyridine hydrochloride], it took 460 nM to reach half-maximal inhibition (IC50).

Compound `Cc1[nH]c2c(OCc3ccc(F)cc3)cncc2c1C` [Example 1, 7-(4-fluorobenzyloxy)-2,3-dimethyl-1H-pyrrolo[3,2-c]pyridine hydrochloride] showed an IC50 of 120 nM.

`Cc1c(C)n(CC2CC2)c2c(N3CCc4ccccc4C3)cncc12` [Example 39, 2-(1-cyclopropylmethyl-2,3-dimethyl-1H-pyrrolo[3,2-c]pyridin-7-yl)-1,2,3,4-tetrahydroisoquinoline hydrochloride] registered a half-maximal inhibitory concentration (IC50) of 240 nM. Compared with the last compound, the IC50 is about 2-fold higher.

As to `CCn1c(C)c(C)c2cncc(N3CCc4ccccc4C3)c21` [Example 40, 2-(1-ethyl-2,3-dimethyl-1H-pyrrolo[3,2-c]pyridin-7-yl)-1,2,3,4-tetrahydroisoquinoline hydrochloride], the IC50 came to 30 nM.

As to `Cc1c(C)n(Cc2ccc(F)cc2)c2c(N3CCc4ccccc4C3)cncc12` [Example 28, 2-[1-(4-fluorobenzyl)-2,3-dimethyl-1H-pyrrolo[3,2-c]pyridin-7-yl]-1,2,3,4-tetrahydroisoquinoline hydrochloride], the concentration for half-maximal inhibition (IC50) was determined as 190 nM.

`Cc1c(C)n(Cc2ccc(F)cc2)c2c(OCc3ccc(F)cc3)cncc12` [Example 9, 1-(4-fluorobenzyl)-7-(4-fluorobenzyloxy)-2,3-dimethyl-1H -pyrrolo[3,2-c]pyridine hydrochloride] yielded a 50% inhibitory concentration (IC50) of 50 nM.

`COCCn1c(C)c(C)c2cncc(N3CCc4ccccc4C3)c21` [Example 31, 1-(2-methoxyethyl)-7-(1,2,3,4-tetrahydroisoquinolin-2-yl)-2,3-dimethyl-1H -pyrrolo[3,2-c]pyridine hydrochloride] registered an IC50 of 170 nM.

As to `Cc1c(C)n(Cc2cccc(C#N)c2)c2c(N3CCc4ccccc4C3)cncc12` [Example 41, 3-[7-(3,4-dihydro-1H-isoquinolin-2-yl)-2,3-dimethylpyrrolo[3,2-c]pyridin-1-ylmethyl]-benzonitrile hydrochloride], the half-inhibitory concentration (IC50) was 1810 nM. This IC50 lies about 11-fold higher than the previous one.

With `C=COCCn1c(C)c(C)c2cncc(N3CCc4ccccc4C3)c21` [Example 33, 1-(2-vinyloxyethyl)-7-(1,2,3,4-tetrahydroisoquinolin-2-yl)-2,3-dimethyl-1H -pyrrolo[3,2-c]pyridine hydrochloride], the half-inhibitory concentration (IC50) was determined as 410 nM.

As to `Cc1c(C)n(Cc2ccc(C(F)(F)F)cc2)c2c(OCc3ccc(F)cc3)cncc12` [Example 10, 7-(4-fluorobenzyloxy)-2,3-dimethyl-1-(4-trifluoromethylbenzyl)-1H -pyrrolo[3,2-c]pyridine hydrochloride], the IC50 is 340 nM.

Turning to `Cc1[nH]c2c(N3CCc4ccccc4C3)cncc2c1C` [Example 27, 2-(2,3-dimethyl-1H-pyrrolo[3,2-c]pyridin-7-yl)-1,2,3,4-tetrahydroisoquinoline hydrochloride], inhibition was half-maximal at 460 nM (IC50). This IC50 and that of the compound before are within 1.5-fold of each other.
